In the case of `O=C(Nc1ccc(N2CCC2)nc1)c1cc2cc(C(F)(F)F)ccc2n1Cc1cccc(F)c1` [Compound 25, N-[6-(azetidin-1-yl)pyridin-3-yl]-5-trifluoromethyl-1-(3-fluorobenzyl)-1H-indole-2-carboxamide], the melting point (usually the temperature of the solid-liquid transition) is 222 to 224 °C.
With `Cc1cc(C)c2cc(C(=O)Nc3ccc(N4CCC4)nc3)n(Cc3cccc(F)c3)c2c1` [Compound 32, N-[6-(azetidin-1-yl)pyridin-3-yl]-4,6-dimethyl-1-(3-fluorobenzyl)-1H-indole-2-carboxamide], the melting point lay in the range of 234 to 236 °C.
The same measure for `CN(C)c1ccc2cc(C(=O)Nc3ccc(N4CCC4)nc3)n(Cc3cccc(F)c3)c2c1` [Compound 36, N-[6-(azetidin-1-yl)pyridin-3-yl]-6-dimethylamino-1-(3-fluorobenzyl)-1H-indole-2-carboxamide]: 256 to 258 °C.
The same measure for `CC(C)(C)c1ccc2c(c1)cc(C(=O)Nc1ccc(N3CCC3)nc1)n2Cc1cccc(F)c1` [Compound 49, N-[6-(azetidin-1-yl)pyridin-3-yl]-5-tert-butyl-1-(3-fluorobenzyl)-1H-indole-2-carboxamide]: 212 to 214 °C.
With `CC(C)c1ccc2c(c1)cc(C(=O)Nc1ccc(N3CCC3)nc1)n2Cc1cccc(F)c1` [Compound 48, N-[6-(azetidin-1-yl)pyridin-3-yl]-5-isopropyl-1-(3-fluorobenzyl)-1H-indole-2-carboxamide] the figure was 204 to 206 °C; with `Cc1cc(Cn2c(C(=O)Nc3ccc(N4CCCC4)nc3)cc3cc(F)ccc32)ccn1` [Compound 19, N-[6-(pyrrolidin-1-yl)pyridin-3-yl]-5-fluoro-1-[(2-methylpyridin-4-yl)methyl]-1H-indole-2-carboxamide], 213 to 215 °C.
The molecule `O=C(Nc1cnc(N2CCCC2)cc1C(F)(F)F)c1cc2cc(F)ccc2n1Cc1cccc(F)c1` [Compound 53, N-[6-(pyrrolidin-1-yl)-4-(trifluoromethyl)pyridin-3-yl]-5-fluoro-1-(3-fluorobenzyl)-1H-indole-2-carboxamide] yielded a melting point of 170 to 171 °C.
With `Cc1cccc2c1cc(C(=O)Nc1ccc(N3CCC3)nc1)n2Cc1cccc(F)c1` [Compound 45, N-[6-(azetidin-1-yl)pyridin-3-yl]-4-methyl-1-(3-fluorobenzyl)-1H-indole-2-carboxamide] the figure was 246 to 248 °C.
With `CC(C)(C)c1ccc2cc(C(=O)Nc3ccc(N4CCC4)nc3)n(Cc3cccc(F)c3)c2c1` [Compound 33, N-[6-(azetidin-1-yl)pyridin-3-yl]-6-tert-butyl-1-(3-fluorobenzyl)-1H-indole-2-carboxamide] the figure was 204 to 206 °C; with `O=C(Nc1ccc(N2CC(O)C2)nc1)c1cc2ccc(C(F)(F)F)cc2n1Cc1cccc(F)c1` [Compound 30, N-[6-(3-hydroxyazetidin-1-yl)pyridin-3-yl]-1-(3-fluorobenzyl)-6-trifluoromethyl-1H-indole-2-carboxamide], 253 to 255 °C.
The same measure for `O=C(Nc1ccc(N2CC(O)C2)nc1)c1cc2cc(C(F)(F)F)ccc2n1Cc1cccc(F)c1` [Compound 29, N-[6-(3-hydroxyazetidin-1-yl)pyridin-3-yl]-1-(3-fluorobenzyl)-5-trifluoromethyl-1H-indole-2-carboxamide]: 194 to 196 °C; for `CS(=O)(=O)c1ccc2c(c1)cc(C(=O)Nc1ccc(N3CCC3)nc1)n2Cc1cccc(F)c1` [Compound 35, N-[6-(azetidin-1-yl)pyridin-3-yl]-5-methylsulphonyl-1-(3-fluorobenzyl)-1H-indole-2-carboxamide]: 258 to 260 °C.
`Cc1ccc2cc(C(=O)Nc3ccc(N4CCC4)nc3)n(Cc3cccc(F)c3)c2c1` [Compound 46, N-[6-(azetidin-1-yl)pyridin-3-yl]-6-methyl-1-(3-fluorobenzyl)-1H-indole-2-carboxamide] showed a melting point of 228 to 230 °C.
With `Cc1ccc2c(c1)cc(C(=O)Nc1ccc(N3CCC3)nc1)n2Cc1cccc(F)c1` [Compound 47, N-[6-(azetidin-1-yl)pyridin-3-yl]-5-methyl-1-(3-fluorobenzyl)-1H-indole-2-carboxamide] the figure was 236 to 238 °C; with `CC(C)c1ccc2cc(C(=O)Nc3ccc(N4CCC4)nc3)n(Cc3cccc(F)c3)c2c1` [Compound 51, N-[6-(azetidin-1-yl)pyridin-3-yl]-6-isopropyl-1-(3-fluorobenzyl)-1H-indole-2-carboxamide], 184 to 186 °C; with `O=C(Nc1ccc(N2CC3CCC3C2)nc1)c1cc2cc(F)ccc2n1Cc1cccc(F)c1` (stereo not shown) [Compound 22, N-[6-(3-azabicyclo[3.2.0]hept-3-yl)pyridin-3-yl]-5-fluoro-1-(3-fluorobenzyl)-1H-indole-2-carboxamide], 163 to 165 °C.
The same measure for `CSc1ccc2cc(C(=O)Nc3ccc(N4CCC4)nc3)n(Cc3cccc(F)c3)c2c1` [Compound 37, N-[6-(azetidin-1-yl)pyridin-3-yl]-6-methylthio-1-(3-fluorobenzyl)-1H-indole-2-carboxamide]: 206 to 208 °C; for `O=C(Nc1ccc(N2CCC2)nc1)c1cc2c(F)cccc2n1Cc1cccc(F)c1` [Compound 38, N-[6-(azetidin-1-yl)pyridin-3-yl]-4-fluoro-1-(3-fluorobenzyl)-1H-indole-2-carboxamide]: 214 to 216 °C.
The same measure for `CC(C)Oc1ccc2cc(C(=O)Nc3ccc(N4CCC4)nc3)n(Cc3cccc(F)c3)c2c1` [Compound 34, N-[6-(azetidin-1-yl)pyridin-3-yl]-6-isopropyloxy-1-(3-fluorobenzyl)-1H-indole-2-carboxamide]: 198 to 200 °C; for `O=C(Nc1ccc(N2CCC2)nc1)c1cc2ccc(C(F)(F)F)cc2n1Cc1cccc(F)c1` [Compound 52, N-[6-(azetidin-1-yl)pyridin-3-yl]-6-trifluoromethyl-1-(3-fluorobenzyl)-1H-indole-2-carboxamide]: 220 to 222 °C.
On to `O=C(Nc1ccc(N2CCC2)nc1)c1cc2cccc(F)c2n1Cc1cccc(F)c1` [Compound 39, N-[6-(azetidin-1-yl)pyridin-3-yl]-7-fluoro-1-(3-fluorobenzyl)-1H-indole-2-carboxamide], for which the melting point is 244 to 246 °C.
With `O=C(Nc1ccc(N2CCC2)nc1)c1cc2ccccc2n1Cc1cccc(F)c1` [Compound 44, N-[6-(azetidin-1-yl)pyridin-3-yl]-1-(3-fluorobenzyl)-1H-indole-2-carboxamide] the figure was 328 to 330 °C; with `O=C(Nc1ccc(N2CCC2)nc1)c1cc2cc(F)ccc2n1Cc1ccccc1` [Compound 31, N-[6-(azetidin-1-yl)pyridin-3-yl]-5-fluoro-1-(benzyl)-1H-indole-2-carboxamide], 208 to 210 °C; with `O=C(Nc1ccc(N2CCC2)nc1)c1cc2c(Cl)cccc2n1Cc1cccc(F)c1` [Compound 41, N-[6-(azetidin-1-yl)pyridin-3-yl]-4-chloro-1-(3-fluorobenzyl)-1H-indole-2-carboxamide], 226 to 228 °C.
The molecule `O=C(Nc1ccc(N2CCC2)nc1)c1cc2cc(Cl)ccc2n1Cc1cccc(F)c1` [Compound 43, N-[6-(azetidin-1-yl)pyridin-3-yl]-5-chloro-1-(3-fluorobenzyl)-1H-indole-2-carboxamide] yielded a melting point of 226 to 228 °C.
`O=C(Nc1ccc(N2CCC2)nc1)c1cc2ccc(F)cc2n1Cc1cccc(F)c1` [Compound 40, N-[6-(azetidin-1-yl)pyridin-3-yl]-6-fluoro-1-(3-fluorobenzyl)-1H-indole-2-carboxamide] showed a melting point of 210 to 212 °C.
With `O=C(Nc1ccc(N2CC(O)C2)nc1)c1cc2cc(F)ccc2n1Cc1cccc(F)c1` [Compound 24, N-[6-(3-hydroxyazetidin-1-yl)pyridin-3-yl]-5-fluoro-1-(3-fluorobenzyl)-1H-indole-2-carboxamide] the figure was 199 to 200 °C.
With `CCc1ccc2cc(C(=O)Nc3ccc(N4CCC4)nc3)n(Cc3cccc(F)c3)c2c1` [Compound 50, N-[6-(azetidin-1-yl)pyridin-3-yl]-6-ethyl-1-(3-fluorobenzyl)-1H-indole-2-carboxamide] the figure was 196 to 198 °C.
The same measure for `COc1cc(N2CCCC2)ncc1NC(=O)c1cc2cc(F)ccc2n1Cc1ccncc1` [Compound 18, N-[4-methoxy-6-(pyrrolidin-1-yl)pyridin-3-yl]-5-fluoro-1-[(pyridin-4-yl)methyl]-1H-indole-2-carboxamide]: 225 to 226 °C; for `O=C(Nc1ccc(N2CCC2)nc1)c1cc2ccc(Cl)cc2n1Cc1cccc(F)c1` [Compound 42, N-[6-(azetidin-1-yl)pyridin-3-yl]-6-chloro-1-(3-fluorobenzyl)-1H-indole-2-carboxamide]: 218 to 220 °C.
Molecule `O=C(Nc1ccc(N2CCC2)nc1)c1cc2cc(F)ccc2n1Cc1ccncc1` [Compound 26, N-[6-(azetidin-1-yl)pyridin-3-yl]-1-[(pyridin-4-yl)methyl]-5-fluoro-1H-indole-2-carboxamide] yielded a melting point of 212 to 214 °C.

These data come from patent publication US8586573B2, “N-(Aminoheteroaryl)-1H-indole-2-carboxamide derivatives, and preparation and therapeutic application thereof” (Sanofi, priority 2006, dated 2013).
